In paper PMC12195967, “Cobalt(II) Complexes of 4′–Nitro–Fenamic Acid: Characterization and Biological Evaluation” (Molecules, 2025):
Where two headings read alike, the source gives them in different places.

Experiments:
[1] = DPPH radical scavenging; details: compounds 0.1 mM, DPPH 0.1 mM in ethanol
Procedure: Antioxidant compounds able to neutralize DPPH radicals are increasingly recognized due to their capability of combating cancer, slowing down the aging process and regulating inflammation. As a result, they could potentially offer protection against rheumatoid arthritis and inflammation. […] In this experiment, NDGA and BHT were used as reference compounds and measurements took place at 30 min and 60 min. […] Such low scavenging activity of DPPH radicals is rather common for metal–NSAID complexes.
(§1) S1 Antioxidant activity assay
(§2) The antioxidant activity of the compound was evaluated via the ability to scavenge in vitro free radicals such as DPPH and ABTS and to reduce H2O2. All the experiments were carried out at least in triplicate and the standard deviation of absorbance was less than 10% […]
S1.1 Determination of the reducing activity of the radical DPPH
To an ethanolic solution of DPPH (0.1 mM) an equal volume solution of the compounds (0.1 mM) in ethanol was added. Absolute ethanol was also used as control solution. The absorbance at 517 nm was recorded at room temperature after 30 and 60 min in order to examine the possible existence of a potential time−dependence of the DPPH radical scavenging activity.[1] The DPPH−scavenging activity of the compounds was expressed as the percentage reduction of the absorbance values of the initial DPPH solution (DPPH%). NDGA and BHT were used as reference compounds. […]

[2] = target: CT DNA; details: cited from earlier work
[3] = Reduction of hydrogen peroxide; details: compounds 0.1 mM; phosphate buffer pH 7.4; 10 min
Procedure: Harmful hydroxyl radicals are released when hydrogen peroxide interacts with transition metal ions, leading to oxidative stress. Consequently, both oxidative stress and the production of reactive oxygen species could be reduced by ^•OH scavengers and H2O2 reducing agents.
as §1
The antioxidant activity of the compound was evaluated via the ability to scavenge in vitro free radicals such as DPPH and ABTS and to reduce H2O2. […]
S1.3 Reduction of hydrogen peroxide
The ability of the compounds to reduce hydrogen peroxide (H2O2) was estimated according to the method described in the literature. The reaction mixture contained 20 μL of each of the tested compounds (0.1 mM) and 5 μL H2O2 solution (40 mM) in phosphate […]
buffer (50 mM, pH 7.4). The absorbance was measured at 230 nm after 10 min. The antioxidant activity (reduction of H2O2) of the compounds was expressed as the percentage decrease of the initial H2O2 solution (H2O2%). […]

[4] = ABTS radical cation scavenging; details: compounds 0.1 mM; absorbance 734 nm after 1 min
Procedure: The ABTS-scavenging was measured through the discoloration of a dark green solution containing the cationic radical ABTS^•+, which was induced from the oxidation derived from hydrogen-donating antioxidants, either complexes or standards, and is often considered a marker of total oxidation capacity. […] Such an increase in activity upon coordination is expected for metal–NSAID complexes.
as §1, §2
S1.2 Assay of radical cation ABTS−scavenging activity
The ABTS assay was performed to determine the activity of the compounds to scavenge the radical cation ABTS. Initially, a water solution of ABTS was prepared (2 mM).
ABTS radical cation (ABTS+·) was produced by the reaction of ABTS stock solution with potassium persulfate (0.17 mM) and the mixture was stored in the dark at room temperature for 12−16 h before its use. The ABTS was oxidized incompletely because the stoichiometric reaction ratio of ABTS and potassium persulfate is 1:0.5. The absorbance became maximal and stable only after more than 6 h of reaction although the oxidation of the ABTS started immediately. The radical was stable in this form for more than 2 days when allowed to stand in the dark at room temperature. Afterwards, the ABTS+· solution was diluted in ethanol to an absorbance of 0.70 at 734 nm and 10 μL of diluted compounds or standards (0.1 mM) in DMSO were added. The absorbance was recorded out exactly 1 min after initial mixing.
The ABTS–radical scavenging activity of the compounds was expressed as the percentage inhibition of the absorbance of the initial ABTS solution (ABTS%). […]

[5] = commercially available fenamates

Cc1cc(C(C)(C)C)c(O)c(C(C)(C)C)c1 [BHT, butylated hydroxytoluene, reference compound]
%DPPH-scavenging ability (DPPH%), 30 min [1]: 70.83 ± 0.03% | %DPPH-scavenging ability (DPPH%), 60 min [1]: 83.39 ± 0.39%

CC[n+]1c(-c2ccccc2)c2cc(N)ccc2c2ccc(N)cc21 [EB, ethidium bromide]
DNA-binding constant Kb ([2]; classic DNA intercalator): 123000 M⁻¹

O=C1O[C@H]([C@@H](O)CO)C(O)=C1O [L-ascorbic acid, reference compound]
H2O2-reducing ability (H2O2%) [3]: 58.90 ± 0.52%

CC(Cc1ccc(O)c(O)c1)C(C)Cc1ccc(O)c(O)c1 (stereo not shown) [NDGA, nordihydroguaiaretic acid, reference compound]
%DPPH-scavenging ability (DPPH%), 30 min [1]: 94.33 ± 0.11% | %DPPH-scavenging ability (DPPH%), 60 min [1]: 90.47 ± 0.42%

Cc1c(C)c2c(c(C)c1O)CCC(C)(C(=O)O)O2 (stereo not shown) [Trolox, 6–hydroxy–2,5,7,8–tetramethylchroman–2–carboxylic acid, reference compound]
%ABTS radical scavenging activity (ABTS%) [4]: 96.50 ± 0.05%

O=C(O)c1ccccc1Nc1cccc(C(F)(F)F)c1 [flufenamic acid]
DNA-binding constant Kb [2, 5]: 270000 M⁻¹

Cc1cccc(Nc2ccccc2C(=O)O)c1C [mefenamic acid]
DNA-binding constant Kb [2, 5]: 105000 M⁻¹

Cc1c(Cl)cccc1Nc1ccccc1C(=O)O [tolfenamic acid]
DNA-binding constant Kb [2, 5]: 50000 M⁻¹
